Activity calls are given as the source filed them. The calls are words filed in the database; no cut-off is given here.
Columns and labels:
[1] = target: T1, Cathepsin K (Homo sapiens) (UniProt P43235); test: Inhibition of human cathepsin K using fluorogenic peptide as substrate at 31 uM
T1 sequence (whole entry): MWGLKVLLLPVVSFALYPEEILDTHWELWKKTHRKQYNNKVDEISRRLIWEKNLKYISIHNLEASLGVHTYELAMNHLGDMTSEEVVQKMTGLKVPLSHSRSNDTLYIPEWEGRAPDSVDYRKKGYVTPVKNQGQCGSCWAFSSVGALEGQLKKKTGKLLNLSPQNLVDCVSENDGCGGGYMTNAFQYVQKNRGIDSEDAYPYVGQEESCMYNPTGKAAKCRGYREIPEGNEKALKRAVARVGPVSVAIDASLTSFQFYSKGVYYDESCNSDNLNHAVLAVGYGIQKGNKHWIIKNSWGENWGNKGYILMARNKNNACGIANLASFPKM

[2] = target: T2, Ubiquitin carboxyl-terminal hydrolase 21 (Homo sapiens, UniProt Q9UK80); test: Inhibition of human USP21 using Ub-rhodamine 110 as substrate
T2 sequence (Q9UK80 whole entry): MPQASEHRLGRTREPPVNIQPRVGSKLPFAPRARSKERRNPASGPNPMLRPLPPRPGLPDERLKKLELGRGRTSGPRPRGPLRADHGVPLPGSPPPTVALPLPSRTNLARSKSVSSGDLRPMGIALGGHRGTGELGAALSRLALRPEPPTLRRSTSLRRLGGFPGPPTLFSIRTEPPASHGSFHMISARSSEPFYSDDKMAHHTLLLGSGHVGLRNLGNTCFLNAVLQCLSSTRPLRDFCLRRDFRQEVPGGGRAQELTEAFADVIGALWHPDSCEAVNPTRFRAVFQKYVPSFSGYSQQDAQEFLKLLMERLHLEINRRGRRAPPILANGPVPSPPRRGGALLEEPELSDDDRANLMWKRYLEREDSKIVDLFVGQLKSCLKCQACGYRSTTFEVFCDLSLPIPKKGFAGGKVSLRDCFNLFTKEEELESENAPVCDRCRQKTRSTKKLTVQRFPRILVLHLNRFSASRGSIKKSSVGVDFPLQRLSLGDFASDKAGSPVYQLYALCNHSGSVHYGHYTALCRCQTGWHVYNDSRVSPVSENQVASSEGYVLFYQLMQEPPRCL

Caspase-3 (Homo sapiens) = target: T3, Caspase-3 (Homo sapiens) (UniProt P42574); test: Inhibition of human caspase-3 using fluorogenic peptide as substrate at 31 uM
T3 sequence (whole entry): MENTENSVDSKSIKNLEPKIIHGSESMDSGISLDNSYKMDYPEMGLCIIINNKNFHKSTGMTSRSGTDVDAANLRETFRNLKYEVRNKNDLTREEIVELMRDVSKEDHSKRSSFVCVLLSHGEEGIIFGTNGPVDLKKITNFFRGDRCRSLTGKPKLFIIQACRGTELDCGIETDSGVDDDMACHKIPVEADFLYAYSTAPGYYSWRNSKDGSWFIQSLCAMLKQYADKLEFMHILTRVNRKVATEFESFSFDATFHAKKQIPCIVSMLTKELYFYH

[3] = target: Ubiquitin carboxyl-terminal hydrolase 7 (Homo sapiens, UniProt Q93009); test: Inhibition of human USP7 using Ub-rhodamine 110 as substrate at 31 uM
Sequence of Ubiquitin carboxyl-terminal hydrolase 7 (Q93009 whole entry, looked up): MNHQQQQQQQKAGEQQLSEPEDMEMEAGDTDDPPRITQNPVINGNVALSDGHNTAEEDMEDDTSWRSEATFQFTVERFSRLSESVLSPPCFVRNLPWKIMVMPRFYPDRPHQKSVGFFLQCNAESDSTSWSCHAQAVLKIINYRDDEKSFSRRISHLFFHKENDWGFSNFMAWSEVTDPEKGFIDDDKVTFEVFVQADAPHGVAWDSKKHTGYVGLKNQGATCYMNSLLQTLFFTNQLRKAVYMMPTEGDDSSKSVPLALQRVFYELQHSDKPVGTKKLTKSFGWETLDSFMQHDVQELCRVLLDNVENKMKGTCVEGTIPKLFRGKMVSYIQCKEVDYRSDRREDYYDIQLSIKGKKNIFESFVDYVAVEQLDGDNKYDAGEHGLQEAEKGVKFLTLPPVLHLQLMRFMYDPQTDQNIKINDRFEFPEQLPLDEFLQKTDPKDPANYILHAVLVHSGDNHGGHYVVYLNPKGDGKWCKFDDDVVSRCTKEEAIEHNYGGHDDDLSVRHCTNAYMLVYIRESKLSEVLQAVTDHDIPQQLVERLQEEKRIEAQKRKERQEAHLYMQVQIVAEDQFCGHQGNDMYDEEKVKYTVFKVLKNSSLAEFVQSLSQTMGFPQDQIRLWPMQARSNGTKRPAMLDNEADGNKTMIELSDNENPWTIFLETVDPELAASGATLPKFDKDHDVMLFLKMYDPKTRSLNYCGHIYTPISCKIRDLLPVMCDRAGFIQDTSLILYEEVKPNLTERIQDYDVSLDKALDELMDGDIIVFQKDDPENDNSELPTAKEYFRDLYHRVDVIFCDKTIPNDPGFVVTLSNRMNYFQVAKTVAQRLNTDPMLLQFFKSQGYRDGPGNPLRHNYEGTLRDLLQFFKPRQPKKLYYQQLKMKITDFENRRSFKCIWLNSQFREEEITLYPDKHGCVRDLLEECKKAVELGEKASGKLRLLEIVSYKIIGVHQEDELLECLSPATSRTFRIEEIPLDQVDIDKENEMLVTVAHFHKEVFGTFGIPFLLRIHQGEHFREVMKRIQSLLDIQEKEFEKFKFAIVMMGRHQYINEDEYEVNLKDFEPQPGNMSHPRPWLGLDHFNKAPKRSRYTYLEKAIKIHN

[4] = Cytotoxicity against african green monkey Vero E6 cells assessed as cell viability after 48 hrs by Cell Titer-Glo luminescent assay; assay type: cell-based; details: chlorocebus sabaeus
BL21-DE3 = test: Inhibition of SARS coronavirus papain-like protease (amino acids 1541 to 1855) expressed in Escherichia coli BL21 (DE3) cells assessed as decrease in AMC release using Z-RLRGG-AMC as substrate by serum shift assay based multimode plate reader analysis in presence of 5 to 20% human serum albumin; details: Severe acute respiratory syndrome-related coronavirus
[5] = target: T4, Ubiquitin carboxyl-terminal hydrolase 20 (Homo sapiens, UniProt Q9Y2K6); test: Inhibition of human USP20 using Ub-rhodamine 110 as substrate
T4 sequence (Q9Y2K6 whole entry): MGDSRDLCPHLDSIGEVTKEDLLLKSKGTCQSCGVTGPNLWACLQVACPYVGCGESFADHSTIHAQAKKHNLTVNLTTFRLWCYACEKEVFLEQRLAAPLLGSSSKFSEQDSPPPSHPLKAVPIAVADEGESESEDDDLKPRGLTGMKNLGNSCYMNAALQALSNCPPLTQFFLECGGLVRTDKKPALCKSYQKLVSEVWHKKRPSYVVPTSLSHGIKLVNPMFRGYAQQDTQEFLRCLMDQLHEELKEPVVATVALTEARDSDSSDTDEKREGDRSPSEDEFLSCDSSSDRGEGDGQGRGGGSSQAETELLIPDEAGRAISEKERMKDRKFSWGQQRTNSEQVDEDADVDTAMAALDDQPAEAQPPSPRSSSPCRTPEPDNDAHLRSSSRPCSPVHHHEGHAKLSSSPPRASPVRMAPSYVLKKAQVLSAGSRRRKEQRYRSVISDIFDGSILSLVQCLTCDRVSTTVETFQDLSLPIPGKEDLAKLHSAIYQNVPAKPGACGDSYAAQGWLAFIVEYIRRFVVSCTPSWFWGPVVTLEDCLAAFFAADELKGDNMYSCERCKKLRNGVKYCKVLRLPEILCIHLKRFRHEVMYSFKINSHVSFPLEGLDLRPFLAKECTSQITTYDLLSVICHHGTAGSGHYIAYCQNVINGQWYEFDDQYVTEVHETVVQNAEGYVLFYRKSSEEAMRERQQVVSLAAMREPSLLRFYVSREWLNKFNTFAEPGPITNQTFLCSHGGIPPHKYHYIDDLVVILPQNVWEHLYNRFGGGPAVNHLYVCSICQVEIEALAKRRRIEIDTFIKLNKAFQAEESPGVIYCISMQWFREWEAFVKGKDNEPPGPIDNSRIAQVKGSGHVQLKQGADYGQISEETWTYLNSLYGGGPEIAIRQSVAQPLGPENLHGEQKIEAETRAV

HEK293 = test: Cytotoxicity against human HEK293 cells assessed as cell viability after 48 hrs by Cell Titer-Glo luminescent assay; assay type: cell-based; details: hek293, 48 h
[6] = target: T5, Ubiquitin carboxyl-terminal hydrolase 21 (Homo sapiens) (UniProt Q9UK80); test: Inhibition of human USP21 using Ub-rhodamine 110 as substrate at 31 uM
T5 sequence (whole entry): T2 sequence (Q9UK80 whole entry)

[7] = target: T6, Sentrin-specific protease 8 (Homo sapiens, UniProt Q96LD8); test: Inhibition of human DEN1 using Nedd8-EKL as substrate
T6 sequence (Q96LD8 whole entry): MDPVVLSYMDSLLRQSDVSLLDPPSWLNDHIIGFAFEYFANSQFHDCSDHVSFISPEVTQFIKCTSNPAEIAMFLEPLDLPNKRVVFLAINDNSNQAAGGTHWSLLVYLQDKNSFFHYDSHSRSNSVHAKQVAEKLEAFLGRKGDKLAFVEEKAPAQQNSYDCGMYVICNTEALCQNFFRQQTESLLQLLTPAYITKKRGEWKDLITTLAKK

[8] = target: T4, Ubiquitin carboxyl-terminal hydrolase 20; test: Inhibition of human USP20 using Ub-rhodamine 110 as substrate at 31 uM
Caspase-3 = target: T7, Caspase-3 (Homo sapiens, UniProt P42574); test: Inhibition of human caspase-3 using fluorogenic peptide as substrate
T7 sequence (P42574 whole entry): T3 sequence (whole entry)

SARS-CoV = test: Antiviral activity against SARS coronavirus infected in african green monkey Vero E6 cells assessed as cell viability after 48 hrs by Cell Titer-Glo luminescent assay; assay type: functional, organism-based; details: Severe acute respiratory syndrome-related coronavirus
Cathepsin K = target: T8, Cathepsin K (Homo sapiens, UniProt P43235); test: Inhibition of human cathepsin K using fluorogenic peptide as substrate
T8 sequence (P43235 whole entry): T1 sequence (whole entry)

[9] = target: T9, Ubiquitin carboxyl-terminal hydrolase isozyme L1 (Homo sapiens, UniProt P09936); test: Inhibition of human UCHL1
T9 sequence (P09936 whole entry): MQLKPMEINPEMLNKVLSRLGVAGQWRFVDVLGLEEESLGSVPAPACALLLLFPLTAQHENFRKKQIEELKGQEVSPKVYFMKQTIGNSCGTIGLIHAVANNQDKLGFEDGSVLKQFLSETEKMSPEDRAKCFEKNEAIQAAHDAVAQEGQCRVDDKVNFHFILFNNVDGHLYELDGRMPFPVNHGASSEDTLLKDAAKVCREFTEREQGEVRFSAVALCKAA

Liver = test: Half life in mouse liver microsomes at 1 uM; assay type: ADME

SMILES | inhibition [1] [%] | IC50 [2] [µM] | inhibition (Caspase-3 (Homo sapiens)) [%] | inhibition [3] [%] | CC50 [4] [µM] | inhibition (BL21-DE3) | IC50 ([5]; read-out: IC50) [µM] | CC50 (HEK293) [µM] | inhibition [6] [%] | IC50 [7] | inhibition [8] [%] | IC50 (Caspase-3) | EC50 (SARS-CoV) [µM] | IC50 (Cathepsin K) | IC50 [9] | IC50 [5] | t1/2 (Liver) [min]
C[C@H](c1cccc2ccccc12)N1CCC(C(=O)NCc2ccc(F)cc2)CC1 | < 10 | > 31 | < 10 | < 10 | > 100 | Active | > 100 | 73 | 15 | Not Active | 10 | Not Active | 11.6 | Not Active | Not Active | – | –
C[C@H](c1cccc2ccccc12)N1CCC(C(=O)NCc2ccc3c(c2)OCO3)CC1 | < 10 | > 31 | < 10 | < 10 | > 100 | Active | – | > 100 | 15 | Not Active | < 10 | Not Active | 12.8 | Not Active | Not Active | Not Active | 1.6
CC(=O)Nc1cccc(CNC(=O)C2CCN([C@H](C)c3cccc4ccccc34)CC2)c1 | < 10 | > 31 | < 10 | 10 | > 100 | Active | > 100 | 68 | 15 | Not Active | 10 | Not Active | 8.3 | Not Active | Not Active | – | 7
C[C@H](c1cccc2ccccc12)N1CCC(C(=O)NCc2cccc(F)c2)CC1 | < 10 | > 31 | < 10 | < 10 | > 100 | Active | > 100 | 73 | 15 | Not Active | 10 | Not Active | 5.4 | Not Active | Not Active | – | 2.8
